Experimental data published in US5622983A, “N-substituted cycloalkyl and polycycloalkyl α-substituted Trp-Phe- and phenethylamine derivatives” (Warner-Lambert Company, priority 1995, dated 1997).

Key:
[1] = Light/dark exploration test (anxiolytic activity); format: in vivo, mouse
Description: In FIG. 2 the number of mice was 5 and the pretreatment time was 40 minutes. The compound was given p.o. in 0.1, 1, and 10 mg/kg doses.
The apparatus was an open-topped box, 45 cm long, 27 cm wide, and 27 cm high, divided into a small (2/5) area and a large (3/5) area by a partition that extended 20 cm above the walls. There was a 7.5×7.5 cm opening in the partition at floor level. The small compartment was painted black and the large compartment white. The floor of each compartment was marked into 9 cm squares. The white compartment was illuminated by a 100-watt tungsten bulb 17 cm above the box and the black compartment by a similarly placed 60-watt red bulb. The laboratory was illuminated with red light.
All tests were performed between 13 hundred hours, 0 minutes and 18 hundred hours, 0 minutes. Each mouse was tested by placing it in the center of the white area and allowing it to explore the novel environment for five minutes. Its behavior was recorded on videotape and the behavioral analysis was performed subsequently from the recording. Five parameters were measured: the latency to entry into the dark compartment, the time spent in each area, the number of transitions between compartments, the number of lines crossed in each compartment, and the number of rears in each compartment.
Drugs were dissolved in water or saline and administered either subcutaneously, intraperitoneally, or by mouth (PO) via a stomach needle.

[2] = Palatable Diet Feeding assay; format: in vivo, rat; details: dose producing 50% of the maximum effect possible (zero food intake)
Description: In the Palatable Diet Feeding assay, adult male Hooded Lister rats weighing between 200-400 g were housed individually and trained to eat a palatable diet. This diet consisted of Nestles sweetened condensed milk, powdered rat food and rat water which when blended together set to a firm consistency. […] The intake of palatable diet was measured by weighing the food container before and after the 30-minute access period (limits of accuracy 0.1 g). Care was taken to collect and correct for any spillage of the diet. Rats had free access to pellet food and water except during the 30-minute test period.
After the training period, dose-response curves were constructed for CCK8 and several representative compounds of the present invention (n=8-10 rats per dose level).

Central CCK Receptors = molecular target: T1, Central CCK Receptors (Mus musculus, UniProt P56481); assay: Binding to central CCK receptors (tritiated-pentagastrin displacement, cerebral cortical membranes); details: read-out: Binding to Central CCK Receptors Ki; displacement of 2 nM tritiated-pentagastrin, mouse cerebral cortical membranes
T1 sequence (P56481 1-453): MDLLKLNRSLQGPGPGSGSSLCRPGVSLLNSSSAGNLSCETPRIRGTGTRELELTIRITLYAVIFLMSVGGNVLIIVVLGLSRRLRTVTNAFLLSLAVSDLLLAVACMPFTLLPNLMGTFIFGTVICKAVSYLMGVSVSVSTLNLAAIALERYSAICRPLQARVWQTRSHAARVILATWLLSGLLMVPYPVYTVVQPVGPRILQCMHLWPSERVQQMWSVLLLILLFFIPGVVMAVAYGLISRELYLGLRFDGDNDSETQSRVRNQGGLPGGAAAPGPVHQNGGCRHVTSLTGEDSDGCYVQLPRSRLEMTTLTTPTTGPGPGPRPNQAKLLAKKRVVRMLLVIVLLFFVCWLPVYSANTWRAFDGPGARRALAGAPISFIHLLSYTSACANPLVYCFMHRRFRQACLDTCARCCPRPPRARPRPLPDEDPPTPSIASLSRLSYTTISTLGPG
Description: The biological activity of compounds of the present invention was evaluated employing an initial screening test which rapidly and accurately measured the binding of the tested compound to known CCK receptor sites.
The resulting suspension was centrifuged, the supernate was discarded, and the pellet was washed by resuspension in Tris-HCl buffer followed by recentrifugation.
In saturation studies, cerebral cortical membranes were incubated at 23° C. for 120 minutes in a final volume of 500 μliter of Hepes incubation buffer (pH 7.2) together with 0.2-20 nM tritiated-pentagastrin (Amersham International, England).
In each case, the nonspecific binding was defined as that persisting in the presence of the unlabeled octapeptide CCK26-33 (10^-6 M).
Following incubation, radioactivity bound to membranes was separated from that free in solution by rapid filtration through Whatman GF/B filters and washed three times with 4 mL of ice cold Tris-HCl buffer.
The specific binding to CCK receptor sites was defined as the total bound tritiated-pentagastrin minus the amount of tritiated-pentagastrin bound in the presence of 10^-6 octapeptide, CCK26-33.
The inhibition constant (Ki) of the test compound was then calculated according to the Cheng-Prusoff equation: [formula] where [L] is the concentration of radiolabel and Ka is the equilibrium dissociation constant.

[3] = system: pentagastrin stimulated gastric acid secretion; assay: Pentagastrin stimulated gastric acid secretion (Ghosh and Schild perfused stomach); format: in vivo, rat; details: 1 nmole/kg pentagastrin
Description: They were anesthetized with urethane (1.5 g/kg IP) and the trachea cannulated to aid spontaneous respiration. The stomach was perfused continuously using a modification of the original method of Ghosh & Schild in "Continuous recording of acid secretion in the rat", Br. J. Pharmac. […] The fluid was propelled by a roller pump (Gilson, Minipuls 2), through heating coils to bring its temperature to 37°±1° C. The perfusion fluid was collected by the fundic collecting funnel and passed to a pH electrode connected to a Jenway pH meter (PHM6). An output was taken from the pH meter to a Rikadenki chart recorder for the on-line recording of the pH of the gastric perfusate.
Pentagastrin was stored as a frozen aliquot and diluted to the required concentrations with sterile 0.9% w/v NaCl. Novel compounds were dissolved in sterile 0.9% w/v NaCl on the day of the experiment. Drugs were administered IV through a cannulated jugular vein as a bolus in a dose volume of 1 mL/kg washed in with 0.15 mL 0.9% w/v NaCl. Basal pH was allowed to stabilize before administration of compounds was begun.

[4] = Antagonism of intra-accumbens amphetamine hyperactivity (antipsychotic activity); format: in vivo, rat; details: 20 mg/kg or 30 mg/kg intraperitoneal; amphetamine 20 μg
Description: Male Sprague Dawley (CD) Bradford strain rats were used. The rats were housed in groups of five at a temperature of 21°±2° C. on a 12 hour light-dark cycle of lights-on between 07 hours 00 minutes and […]. Rats were fed CRM diet (Labsure) and allowed water ad libitum.
Rats were anesthetized with chloral hydrate (400 mg/kg SC) and placed in a Kopf stereotaxic frame. Chronically indwelling guide cannulae (constructedof stainless steel tubing 0.65 mm diameter held bilaterally in Parspex holders) were implanted using standard stereotaxic techniques to terminate 3.5 mm above the center of the nucleus accumbens (Ant. 9.4, Vert. 0.0, Lat. 1.6) or 5.0 mm above the central nucleus of the amygdala (Ant. 5.8, Vert. -1.8, Lat. ±4.5) (atlas of De Groot, 1959). The guides were kept patent during a 14-day recovery period using stainless steel stylers, 0.3 mm diameter, which extended 0.5 mmbeyond the guide tips.
Rats were manually restrained and the stylers removed. Intracerebral injection cannulae, 0.3 mm diameter, were inserted and drugs delivered in a volume of 0.5 μl over 5 seconds (a further 55 seconds was allowed for deposition) from Hamilton syringes attached via polythene tubing to the injection units. […]
The abilities of the compounds (20) and (20A) to inhibit the hyperactivity caused by the injection of amphetamine into the nucleus accumbens of the rat was measured. […]

[5] = Withdrawal from long-term drug or alcohol treatment, mouse light/dark box test; format: in vivo; details: 24-hour withdrawal
Description: The effect of the compounds of the instant invention is illustrated, for example, in the mouse "light/dark box" test in FIGS. 5-12.
In FIG. 5, five animals were given nicotine, 0.1 mg/kg i.p.b.d. for 14 days. After a 24-hour withdrawal period, compound (20) was given at 1.0 mg/kg i.p.b.d.
FIG. 6 illustrates the effect of long-term treatment and withdrawal from nicotine using compound (20A). Five mice were given nicotine at 0.1 mg/kg i.p.b.d. for 14 days. After a withdrawal period of 24 hours, compound (20A) was given at 10 mg/kg i.p.b.d.
FIG. 7 illustrates the effect of long-term treatment and withdrawal from diazepam with intervention with compound (20). Five mice were given diazepam, at 10 mg/kg i.p.b.d. for seven days. Withdrawal was for a 24-hour period; compound 20 was given at 1.0 mg/kg i.p.b.d.
FIG. 8 illustrates the effect of compound (20A) on the long-term treatment and withdrawal from diazepam. Five mice were given diazepam at 10 mg/kg i.p.b.d. for seven days. After a withdrawal period of 24 hours, compound (20A) was given at 10 mg/kg i.p.b.d.
FIG. 9 illustrates the effect compound (20A) on the long-term treatment and withdrawal from alcohol. Five mice were given alcohol in drinking water 8% w/v for 14 days. After a withdrawal period of 24 hours, compound (20) was given at 1.0 mg/kg i.p.b.d.
Five mice were given alcohol in drinking water, 8% w/v for 14 days. After a withdrawal period of 24 hours, compound (20A) was given at 10 mg/kg i.p.b.d.
FIG. 11 illustrates the effectiveness in the long-term treatment and withdrawal from cocaine. Five mice were given cocaine as 1.0 mg/kg i.p.b.d. for 14 days.
Five mice were given cocaine at 1.0 mg/kg i.p.b.d. for 14 days after a withdrawal period of 24 hours, compound (20a) was given at 1.0 mg/kg i.p.b.d.

[6] = Aspirin-induced gastric damage; format: in vivo, rat; details: 15 mg/kg PO
Description: Aspirin-induced gastric damage was assessed in groups of 10 rats each.
All animals were fasted for 24 hours before and throughout the experiment. Drug or vehicle was given 10 minutes before an oral dose of 1 mL of a 45-mg/mL suspension of aspirin in 0.5% carboxymethylcellulose (CMC).
The animals were sacrificed five hours after aspirin administration and the stomachs removed and opened for examination.

## C[C@](Cc1c[nH]c2ccccc12)(NC(=O)OC1C2CC3CC(C2)CC1C3)C(=O)NC[C@H](NC(=O)/C=C/C(=O)O)c1ccccc1 (relative stereo) [Example 22, [R-[R*,R*-(E)]]-4-[[2-[[3-(1H-indol-3-yl)-2-methyl-1-oxo-2-[[(tricyclo[3.3.1.1^3,7]dec-2-yloxy)carbonyl]amino]propyl]amino]-1-pbenylethyl]amino]-4-oxo-2-butenoic acid]
[1]; SC
  time spent in the light area of the test box: significantly (p <0.01) increased the time spent in the light area
[1]; subcutaneous
  anxiolytic activity by the subcutaneous route: active

## CN1C(=O)CN=C(c2ccccc2)c2cc(Cl)ccc21 [Diazepam, reference compound]
[1]; 0.25 mg/kg IP, same experiment
  effect on crossings compared with compound (20): effect identical to compound (20)

## CC(Cc1c[nH]c2ccccc12)(NC(=O)OC1C2CC3CC(C2)CC1C3)C(=O)NC(CO)Cc1ccccc1 (stereo not drawn) [Example 15, [R-(R*,S*)]-Tricyclo[3.3,1.1^3,7]dec-2-yl-[2-[[1-(hydroxymethyl)-2-phenylethyl]amino]-1-(1H-indol-3-ylmethyl)-1-methyl-2-oxoethyl]carbamate]
[2]
  Inhibition of Feeding on Rat Palatable Diet Assay I.P. MPE50: 15.7 mg/kg
Central CCK Receptors
  Ki: 26 nM

## CC(Cc1c[nH]c2ccccc12)(NC(=O)OC1C2CC3CC(C2)CC1C3)C(=O)NC(COC(=O)CCC(=O)O)Cc1ccccc1 (stereo not drawn) [Example 16, [R-(R*,S*)]-2-[[3-(1H-indol-3-yl)-2-methyl-1-oxo-2-[[(tricyclo[3.3.1.1^3,7 dec-2-yloxy)carbonyl]amino]propyl]amino]-3-phenylpropyl butanedioate]
[2]
  Inhibition of Feeding on Rat Palatable Diet Assay I.P. MPE50: 10.5 mg/kg
[3]
  reversibility of the antagonism: reversible with full recovery of the response to pentagastrin
[3]; compound IV, anesthetized rat
  effect on stimulation of gastric acid secretion produced by pentagastrin: attenuated
[3]; cumulative dose of 1.1 μmole/kg, initial pentagastrin response 254 μmoles/1 H^+
  gastric acid secreted in response to pentagastrin after compound: 128 μmoles/1 H^+
Central CCK Receptors
  Ki: 30 nM

## CC(Cc1c[nH]c2ccccc12)(NC(=O)OC1C2CC3CC(C2)CC1C3)C(=O)NCC(OC(=O)CCC(=O)O)c1ccccc1 (centres unmarked) [Example 17, 2-[[3-(1H-indol-3-yl)-2-methyl-1-oxo-2-[[(tricyclo-[3.3.1.1.^3,7]dec-2-yloxy)carbonyl]amino]propyl]amino]-1-phenylethyl butanedioate]
[2]
  Inhibition of Feeding on Rat Palatable Diet Assay I.P. MPE50: 13.1 mg/kg
Central CCK Receptors
  Ki: 63 nM

## CC(Cc1c[nH]c2ccccc12)(NC(=O)OC1CC2CCC1(C)C2(C)C)C(=O)NCC(NC(=O)CCC(=O)O)c1ccccc1 (stereo not drawn) [Example 20A, [1S -[1α,2β[S*(S*)], 4α]]-4-[[2-[[3-(1H-indol-3-yl)-2-methyl-1-oxo-2-[[[(1,7,7-trimethylbicyclo[2.2.1]hept-2-yl)oxy]carbonyl]amino]propyl]amino]-1-phenylethyl]amino]-4-oxobutanoic acid]
[4]
  hyperactivity caused by intra-accumbens injection of amphetamine: reduced the hyperactivity
[5]; alcohol 8% w/v in drinking water 14 days, compound 10 mg/kg i.p.b.d.
  time spent in the light section after withdrawal from alcohol (FIG. 10): increased time spent in the light section
[5]; cocaine 1.0 mg/kg i.p.b.d. 14 days, compound 1.0 mg/kg i.p.b.d.
  time spent in the light section after withdrawal from cocaine (FIG. 12): increase in time spent in the light section
[5]; diazepam 10 mg/kg i.p.b.d. seven days, compound 10 mg/kg i.p.b.d.
  time spent in the light section after withdrawal from diazepam (FIG. 8): demonstrates the effectiveness of the compound
[5]; nicotine 0.1 mg/kg i.p.b.d. 14 days, compound 10 mg/kg i.p.b.d.
  time spent in the light area after withdrawal from nicotine (FIG. 6): increase of time spent in the light area
Central CCK Receptors
  Ki: 3 nM

## CNC(=C[N+](=O)[O-])NCCSCc1ccc(CN(C)C)o1 [ranitidine, reference compound]
[6]
  inhibition of ulcer formation: 74%
[6]; ±SD, saline control 12.1±6.85
  ulcer score: 3.2±2.35
